US8187882B2, “Multiple shoot proliferation and regeneration system for plants” (Monsanto Technology LLC, priority 2001, dated 2012)
Structures can show the parent of a compound that is named as a salt.

How the values were obtained:
[1] = test system: DP50 cotton zygotic embryo explants; assay: Relative activity of different formulations of dikegulac on DP50 cotton zygotic embryo explants; format: cell-based; details: cv DP50
Experimental: Any common plant tissue culture media can be used, including, but not limited to, modified LP medium, DKW medium, GD1 medium, MS/B5 medium, or WPM medium. Embryo axes should be placed apical end up and basal end into the medium so that the radicle is beneath the medium surface. The explants are cultured axenically at approximately 25-28° C. under fluorescent lighting at about 10-50 μE PAR for a 16-hour photoperiod. Typically it takes 5-10 weeks for multiple shoots in cotton to develop to a useful size. Table 4 is a comparison of many different formulations of dikegulac.

cotton embryos = assay: Multiple shoot formation from cotton embryos cultured on varying levels of dikegulac with 1 mg/L IAA and 1 mg/L BAP; format: cell-based
Experimental: Tissue culture: Embryo explants are cultured in media in a suitable culture vessel containing 500 mg/L sodium dikegulac (2,3:4,6-diisopropylidene-2-keto-1-gulonic acid), 1 mg/L IAA (indole-3-acetic acid), and 1 mg/L BA (N-6-benzyladenine) (herein after referred to as DIB media). Any common plant tissue culture media can be used, including, but not limited to, modified LP medium, DKW medium, GD1 medium, MS/B5 medium, or WPM medium. Embryo axes should be placed apical end up and basal end into the medium so that the radicle is beneath the medium surface. The explants are cultured axenically at approximately 25-28° C. under fluorescent lighting at about 10-50 μE PAR for a 16-hour photoperiod. Typically it takes 5-10 weeks for multiple shoots in cotton to develop to a useful size. Experiments were done to determine if the form of the dikegulac is important and to determine a minimum optimum level of dikegulac needed for multiple shoot formation. […] What is not captured in the numerical data in Table 3 is the overall phenotypic response of the cultures. The explants cultured on the MS/B5 medium contained a lot of callus tissue at the base and the cultures were yellowing. The cultures on GD1 contained only a minimal amount of callus but the yellowing of the regenerating tissues was present.

cotton plants = assay: Morphology and fertility of cotton plants grown from elongated, rooted shoots produced with dikegulac; format: in vivo
Source text: Elongation and rooting After multiple shoots are produced, individual shoots, epicotyls, or entire shoot clump developed on the explant are excised and subcultured on the basal medium used above (without the growth regulators, or with exogenous auxin) under the same temperature and light conditions. Table 4 is a comparison of many different formulations of dikegulac.

cotton explants = assay: Early experiments with dikegulac sodium salt in the culture medium for cotton; format: cell-based; details: 1000 mg/L incorporated into the culture medium
Experimental: Forms of dikegulac: Dikegulac comes in several forms, for example a sodium salt, Atrimmec™, and free add. Early experiments were done using 1000 mg/L of the sodium salt incorporated into the culture medium for cotton. […] Later tests reduced this to 500 mg/L for ease of shoot development. Sodium dikegulac (500 mg/L) was tested in all combinations with BAP (0, 1, and 5 mg/L) and IAA (0, 1, and 5 mg/L). For US upland cotton varieties, 500 mg/L dikegulac, 1 mg/L IAA and 1 mg/L BA is a particularly useful combination. Zeatin riboside (ZR) can be substituted for BA with good results. The cytokinin component can also be omitted with good results.

[2] = Study 1, 500 mg/L, liquid DIB medium
[3] = Study 1, 500 mg/L, solid DIB medium
[4] = Study 2, 500 mg/L, solid DIB medium
[5] = MS/B5 medium, dikegulac 200 mg/L
[6] = MS/B5 medium, dikegulac 300 mg/L
[7] = MS/B5 medium, dikegulac 500 mg/L

Structure (SMILES) | Extra buds per viable explant [1, 2] | No. non-viable Explants [1, 2] | Percent Responding [1, 2] [%] | Extra buds per viable explant [1, 3] | No. non-viable Explants [1, 3] | Percent Responding [1, 3] [%] | Extra buds per viable explant [1, 4] | No. non-viable Explants [1, 4] | Percent Responding [1, 4] [%] | # Responding, multiple shoots (cotton embryos; GD1 medium, dikegulac 500 mg/L) | # Responding, multiple shoots (cotton embryos; [7]) | Fertility of plants developed from elongated, rooted shoots (cotton plants) [%] | Morphology of plants developed from elongated, rooted shoots (cotton plants) | other results
CC1(C)OC[C@@H]2O[C@@]3(C(=O)[O-])OC(C)(C)O[C@H]3[C@@H]2O1.[Na+] [D4043] | 3.9 | 16 | 84 | 3.4 | 5 | 92 | 4.1 | 8 | 83 |  |  |  |  | 
CC1(C)OC[C@@H]2O[C@@]3(C(=O)[O-])OC(C)(C)O[C@H]3[C@@H]2O1.[Na+] [Q2161] | 3.5 | 20 | 64 | 2.9 | 9 | 85 |  |  |  |  |  |  |  | 
CC1(C)OC[C@@H]2O[C@@]3(C(=O)[O-])OC(C)(C)O[C@H]3[C@@H]2O1.[Na+] [RJK-D] | 3.3 | 11 | 82 |  |  |  |  |  |  |  |  |  |  | 
CC1(C)OC[C@@H]2O[C@@]3(C(=O)[O-])OC(C)(C)O[C@H]3[C@@H]2O1.[Na+] [RJK-H] |  |  |  | 3.7 | 9 | 85 |  |  |  |  |  |  |  | Extra buds per viable explant ([1]; Study 3, 400): 1.9; No. non-viable Explants ([1]; Study 3, 400): 20; Percent Responding ([1]; Study 3, 400): 75%; Extra buds per viable explant ([1]; Study 3, 500): 3.0; No. non-viable Explants ([1]; Study 3, 500): 17; Percent Responding ([1]; Study 3, 500): 79%; Extra buds per viable explant ([1]; Study 3, 600): 3.4; No. non-viable Explants ([1]; Study 3, 600): 24; Percent Responding ([1]; Study 3, 600): 70%; Extra buds per viable explant ([1]; Study 3, 700): 3.1; No. non-viable Explants ([1]; Study 3, 700): 33; Percent Responding ([1]; Study 3, 700): 59%
CC1(C)OC[C@@H]2O[C@@]3(C(=O)O)OC(C)(C)O[C@H]3[C@@H]2O1 [dikegulac (acid form), 2,3:4,6-di-o-isopropylidene-2-keto-L-gulonic add] | 3.4 | 16 | 67 | 3.8 | 8 | 87 | 4.2 | 1 | 96 | 40/50 | 38/50 | 100 | morphologically normal | # Responding, single shoots (cotton embryos; GD1 medium, dikegulac 100 mg/L): 39/50; # Responding, multiple shoots (cotton embryos; GD1 medium, dikegulac 200 mg/L): 21/50; # Responding, single shoots (cotton embryos; GD1 medium, dikegulac 200 mg/L): 22/50; # Responding, multiple shoots (cotton embryos; GD1 medium, dikegulac 300 mg/L): 33/50; # Responding, single shoots (cotton embryos; GD1 medium, dikegulac 300 mg/L): 10/50; # Responding, multiple shoots (cotton embryos; GD1 medium, dikegulac 400 mg/L): 37/50; # Responding, single shoots (cotton embryos; MS/B5 medium, dikegulac 100 mg/L): 36/50; # Responding, multiple shoots (cotton embryos; [5]): 38/50; # Responding, single shoots (cotton embryos; [5]): 9/50; # Responding, multiple shoots (cotton embryos; [6]): 41/50; # Responding, single shoots (cotton embryos; [6]): 3/50; # Responding, multiple shoots (cotton embryos; MS/B5 medium, dikegulac 400 mg/L): 40/50
CC1(C)OC[C@@H]2O[C@@]3(C(=O)O)OC(C)(C)O[C@H]3[C@@H]2O1 [dikegulac (sodium salt), 2,3:4,6-diisopropylidene-2-keto-1-gulonic acid] |  |  |  |  |  |  |  |  |  | 35/50 | 39/50 | 100 | morphologically normal | Response of cotton explants (cotton explants): swelling, enlarged meristems, and adventitious-like leaf primordia, but the explants did not easily grow out
